# Assay results: patent US8754058B2, “Inhibitors of FAM3B gene, inhibitor compositions, inhibiting methods and applications of inhibitors in preparing pharmaceuticals” (Suzhou Ribo Life Science Company, Ltd., priority 2009, dated 2014)
# “Also recorded” adds a separate entry of the source. d = 2'-deoxy (DNA); r = 2'-OH (RNA)
# Assays:
# [1] = test system: FAM3B protein in HepG2 cells; assay: Western blot of FAM3B protein in transfected HepG2 cells; type: cell-based, human; conditions: 48 hours after transfection, Western blot grayscale, FIG. 5
# Experimental: The cells are digested with 0.25% trypsin 24 hours before the transfection, then the cells are counted and inoculated into the 24 well plate in a density of 1×10^5 cells/ml, and 1000 μl cells are added in each well. Lipofectamine™ 2000 liposome from Invitrogen Company is used for the transfection with the small interfering nucleotides obtained from example 1 (FAM3B-1 to FAM3B-32) respectively, and unrelated small interfering nucleotide (the sense strand: 5-[…]-3 (SEQ ID NO: 78); the antisense strand: 5-ACGUGACACGUUC GGAGAATT-3 (SEQ ID NO: 79)) is used as the negative control.
# (4) Inhibition on FAM3B Protein Expression by Using Small Interfering Nucleotides
# After the cells transfected according to step (2) in example 6 are cultured for 48 hours, the cells are disrupted by using the protein lysis buffer and the total proteins are extracted, and the protein sample is examined according to the standard procedure for Western blot. For the detection of FAM3B protein, the membrane is incubated with the rabbit derived anti-FAM3B antibody (R&D systems), the secondary antibody is the peroxidase labelled horse anti-rabbit antibody (Zhongshan Jinqiao); the antibody for detecting the internal reference β-actin: the primary antibody is mouse derived anti-β-actin antibody, and the secondary antibody is the peroxidase labelled goat anti-mouse antibody, and the results are subjected to grayscale comparison shown as FIG. 5.
# HepG2 cells = assay: inhibition of fat-emulsion-induced lipid accumulation in HepG2 cells, oil red O staining; type: cell-based, human; conditions: 20% fat emulsion induction 48 hours, 50 nM, 48 hours after transfection, FIG. 6
# Experimental: (1) Induction of Lipid Accumulation in HepG2 Cells
# The cells are inoculated in the 24 well culture plate in a density of 2×10^4 cells/1 mL, 20% fat emulsion for medical use is added in each well in a dosage of 2 ml/L, and the cells are cultured for 48 hours. The culture is stopped and oil red O staining is carried out to observe the lipids in the cells. The operations are as followed: the cells are rinsed with PBS for three times and 5 minutes each; then the cells are fixed with 50% isopropanol for 1 min and stained with oil red O for 10 min; the cells are rinsed with distilled water for three times and 1 min each; the cells are observed and photographed under a microscope. Normally, the cells might be not stained or only slightly stained, large amount of lipids accumulated in the cells after induction with fat emulsion for medical use, and red lipid droplets can be detected under the microscope after the staining with oil red O.
# (2) Determination of the Inhibitory Effects on Lipid Accumulation in HepG2 Cells […]
# [2] = test system: hepatic adipose infiltration model mice; assay: hepatic adipose infiltration model in mice (MCD diet), oil red O and HE staining of hepatic sections; type: in vivo; conditions: tail i.v. once every three days, 15 days, 2.5, 5 and 10 mg/kg, FIG. 2
# Excerpt: (1) Induction on hepatic adipose infiltration model in mice. 10 male C57BL/6J mice (purchased from the department of experimental animals, Medical Division of Peking University) with age of 8-10 weeks are divided into two groups (normal diet and MCD diet). MCD (high-fat, methionine-choline deficient) diet is a common program for the investigations on non-alcoholic fatty liver in this field. The hepatic adipose infiltration model in mice is obtained after treatments for 10-16 weeks. (2) Treatments on Hepatic Adipose Infiltration Using Small Interfering Nucleotides
# 1.2 mg (0.09 μmol) small interfering nucleotides from FAM3B-43 to FAM3B-46 with modification in the example 3 is dissolved in 1.5 ml RNAase free sterilized physiological saline to prepare a solution comprising 60 μmol/L small interfering nucleotides, and it is mixed in certain proportion with the carrier material. The injection is obtained after the mixed small interfering nucleotide is added into 5 ml RNAase free sterile physiological saline (the concentration of the small interfering nucleotide is 0.25 mg/ml). […]
# [3] = test system: FAM3B protein in hepatic tissues; assay: FAM3B protein expression in hepatic tissues of hyperlipemia model mice; type: in vivo; conditions: tail vein, daily for 7 days
# Excerpt: (§1) The hyperlipemia model of mice is induced by using high-fat feeds, the C57BL/6J mice are purchased from Vital River, male, three weeks old. The formula for the high fat feeds is as below: basic feeds 83.5%, […], 1% cholesterol, 10% pork fat, 0.2% propylthiouracil, 0.3% sodium deoxycholate, 5% sucrose, and it is produced by the experimental animal center of Academy of Military Medical Sciences. The hyperlipemia model of mice is obtained after induction for 3-4 weeks.
# (§2) After the small interfering nucleotide of FAM3B gene FAM3B-46 is labelled with cholesterol or coated with liposome, it is injected into the hyperlipemia model of mice via their tail veins. The injection is carried out for continuous 7 days with one injection each day and the samples are collected after 7 days. The standard dosages for injection are 2.5 mg, 5 mg and 10 mg for every kilogram of body weight. Other dosages such as 0.1 mg-50 mg small interfering nucleotide for every kilogram of body weight are also under test.
# FAM3B mRNA in intestine = assay: FAM3B mRNA expression in intestine of hyperlipemia model mice; type: in vivo; conditions: tail vein, daily for 7 days, FIG. 7
# Excerpt: as §1, §2
# [4] = test system: FAM3B protein in intestine; assay: FAM3B protein expression in intestine of hyperlipemia model mice; type: in vivo; conditions: tail vein, daily for 7 days
# Excerpt: as §1, §2
# [5] = test system: hyperlipemia model of mice; assay: TG and cholesterol levels in hepatic tissues of hyperlipemia model mice; type: in vivo; conditions: tail vein, daily for 7 days, FIG. 8
# Excerpt: as §1
# as §2, with “test. The products from Zhongsheng Beikong Biological Technological Co., Ltd. are used as the kit for detecting triglyceride (TG) and cholesterol, and they are determined on a SABA/18 automated biochemical analyzer. The detections are carried out with reference to the instruction for the kits of Biosino Bio-Technology and Science Incorporation. The animals are subjected to fast dieting 16 hours before blood sample collection.” for “test.”
# [6] = test system: hyperlipemia model of mice; assay: TG and cholesterol levels in blood of hyperlipemia model mice; type: in vivo; conditions: tail vein, daily for 7 days, FIG. 9
# Excerpt: as §1, §2
# [7] = standard dosages 2.5, 5, 10 mg/kg
# [8] = standard dosages and 10 mg/kilogram body weight
substance,measurement,setting,value
"FAM3B-15: siRNA, human FAM3B; sense 5′-GCACUUGGAAGUAAAGAAAdTdT-3′; antisense 5′-UUUCUUUACUUCCAAGUGCdTdT-3′ (sense GCACUUGGAAGUAAAGAAATT; antisense UUUCUUUACUUCCAAGUGCTT; sugars from the 5' end r19 d2, backbone not given here)",inhibition of FAM3B protein expression in HepG2 cells,[1],significantly inhibit
"FAM3B-20: siRNA, human FAM3B; sense 5′-GCUAAGAACAACAGAUAUUdTdT-3′; antisense 5′-AAUAUCUGUUGUUCUUAGCdTdT-3′ (sense GCUAAGAACAACAGAUAUUTT; antisense AAUAUCUGUUGUUCUUAGCTT; sugars from the 5' end r19 d2, backbone not given here)",inhibition of FAM3B protein expression in HepG2 cells,[1],significantly inhibit
same,inhibition of fatty deposition in HepG2 cells,HepG2 cells,significantly inhibit fatty deposition
"FAM3B-11: siRNA, human FAM3B; sense 5′-CUCUGGACCGAUGACAAAGdTdT-3′; antisense 5′-CUUUGUCAUCGGUCCAGAGdTdT-3′ (sense CUCUGGACCGAUGACAAAGTT; antisense CUUUGUCAUCGGUCCAGAGTT; sugars from the 5' end r19 d2, backbone not given here)",inhibition of FAM3B protein expression in HepG2 cells,[1],significantly inhibit
"FAM3B-17: siRNA, human FAM3B; sense 5′-GGUCUAGCUGGGUAUUUAUdTdT-3′; antisense 5′-AUAAAUACCCAGCUAGACCdTdT-3′ (sense GGUCUAGCUGGGUAUUUAUTT; antisense AUAAAUACCCAGCUAGACCTT; sugars from the 5' end r19 d2, backbone not given here)",inhibition of FAM3B protein expression in HepG2 cells,[1],significantly inhibit
"FAM3B-46: chemically modified mouse FAM3B siRNA (2′-O-methyl sense with cholesterol, 2′-fluoro antisense); 5-UCAGAAAUCGAGAGAGAAAdTdT; 5-UUUCUCUCUCGAUUUCUGAdTdT (sense UCAGAAAUCGAGAGAGAAATT; antisense UUUCUCUCUCGAUUUCUGATT; Sense 2'-OMe, antisense 2'-F at italic positions, sense cholesterol at terminus, further chemistry not given here)",degree of hepatic adipose infiltration (oil red O and HE staining),[2],effectively reduce the degree of hepatic adipose infiltration; also recorded: significantly reduced
same,reduction of FAM3B protein expression in hepatic tissues,[3]; [7],40%
same,reduction of FAM3B mRNA expression in intestine,FAM3B mRNA in intestine,significantly inhibit
same,reduction of FAM3B mRNA expression in intestine,FAM3B mRNA in intestine; [7],45%
same,reduction of FAM3B protein expression in intestine,[4]; [7],30%
same,reduction of TG level in hepatic tissues,[5]; 5 mg and 10 mg/kilogram body weight,20-40%
same,reduction of cholesterol level in hepatic tissues,[5]; 10 mg/kilogram body weight,15-30%
same,reduction of TG level in hepatic tissues,[5],significantly reduce
same,reduction of cholesterol level in hepatic tissues,[5],significantly reduce
same,reduction of TG level in blood,[6],significantly reduce
same,reduction of cholesterol level in blood,[6],significantly reduce
same,reduction of TG level in blood,[6]; [8],25-50%
same,reduction of cholesterol level (cholesterol level in blood examined; printed 'in hepatic tissues'),[6]; [8],25-50%
unrelated small interfering nucleotide: negative control siRNA; sense 5-UUCUCCGAACGUGUCACGUTT-3 (SEQ ID NO: 78); antisense 5-ACGUGACACGUUCGGAGAATT-3 (SEQ ID NO: 79) (chemistry not given here) [reference compound],reduction of FAM3B protein expression in hepatic tissues,[3],could not significantly reduce
same,reduction of FAM3B mRNA expression in intestine,FAM3B mRNA in intestine,could not significantly reduce
same,reduction of FAM3B protein expression in intestine,[4],could not significantly reduce
same,reduction of TG level in hepatic tissues,[5],could not significantly reduce
same,reduction of cholesterol level in hepatic tissues,[5],could not significantly reduce
same,reduction of TG level in blood,[6],could not significantly reduce
same,reduction of cholesterol level in blood,[6],could not significantly reduce
"FAM3B-24: siRNA, human FAM3B; sense 5′-GAGUAAAUGUGUUCUGUAUdTdT-3′; antisense 5′-AUACAGAACACAUUUACUCdTdT-3′ (sense GAGUAAAUGUGUUCUGUAUTT; antisense AUACAGAACACAUUUACUCTT; sugars from the 5' end r19 d2, backbone not given here)",inhibition of FAM3B protein expression in HepG2 cells,[1],significantly inhibit
